Test results taken from US20220073525A1, “COMPOSITIONS FOR INHIBITING UBIQUITIN SPECIFIC PROTEASE 1” (FORMA Therapeutics, Inc., priority 2019, published 2022).

molecular target: USP1 (Homo sapiens, UniProt O94782); assay: Biochemical Assay for USP1 Inhibition (Ub-Rho 110 fluorescence); details: Table 5; 30 min preincubation, Enzyme 0.025 nM, Substrate Ub-Rho 110 25 nM; read-out: IC50 (μm)
Experimental: The assay was performed in a final volume of 6 μL in assay buffer containing 20 mM Tris-HCl pH 8.0, (1 M Tris-HCl, pH 8.0 solution; Corning 46-031-CM), 1 mM GSH (L-glutathione reduced, Sigma-Aldrich, G4251-100G), 0.03% BGG (0.22 μM filtered, Sigma, G7516-25G), and 0.01% Triton X-100 (Sigma, T9284-10L). Nanoliter quantities of 10-point, 3-fold serial dilution in DMSO were pre-dispensed into 1536 assay plates (Corning, #3724BC) for a final test concentration of 25 μM to 1.3 nM, top to lowest dose, respectively. Concentration and incubation times were optimized for the maximal signal-to-background while maintaining initial velocity conditions at a fixed substrate concentration (<<Km). 3 μL of 2× Enzyme was added to assay plates (pre-stamped with compound), preincubated for 30 min, and then treated with 3 μL of 2× Substrate (Ub-Rho 110, UbiQ-126). Final concentrations of Enzyme and Substrate are 0.025 nM and 25 nM, respectively. Plates were read using a kinetic protocol continuously for 11 min on the Envision (Perkin Elmer) or PheraSTAR (BMG), excitation at 485 nm and emission at 535 nm or excitation at 520 nm and emission at 590 nm. For all assay formats, data were reported as percent inhibition compared with control wells based on the following equation: % inh=100*([…]), where FLU=measured Fluorescence, AveLow=average Fluorescence of no enzyme control (n=32), and AveHigh=average Fluorescence of DMSO control (n=32). IC50 values were determined by curve fitting of the standard 4 parameter logistic fitting algorithm included in the Activity Base software package: TDBS XE Designer Model205. Data is fitted using the Levenburg Marquardt algorithm.
In Table 5, absolute stereochemistry has not been determined for some Compounds. Accordingly, assignment ofany Compounds as the “R” or “S” stereoisomer is arbitrary, unless otherwise noted. In some cases, Compounds are labeled with “1st eluting isomer”, “2nd eluting isomer”, etc. based on the purification method used to separate the stereoisomers.

Sequence of USP1 (O94782 whole entry): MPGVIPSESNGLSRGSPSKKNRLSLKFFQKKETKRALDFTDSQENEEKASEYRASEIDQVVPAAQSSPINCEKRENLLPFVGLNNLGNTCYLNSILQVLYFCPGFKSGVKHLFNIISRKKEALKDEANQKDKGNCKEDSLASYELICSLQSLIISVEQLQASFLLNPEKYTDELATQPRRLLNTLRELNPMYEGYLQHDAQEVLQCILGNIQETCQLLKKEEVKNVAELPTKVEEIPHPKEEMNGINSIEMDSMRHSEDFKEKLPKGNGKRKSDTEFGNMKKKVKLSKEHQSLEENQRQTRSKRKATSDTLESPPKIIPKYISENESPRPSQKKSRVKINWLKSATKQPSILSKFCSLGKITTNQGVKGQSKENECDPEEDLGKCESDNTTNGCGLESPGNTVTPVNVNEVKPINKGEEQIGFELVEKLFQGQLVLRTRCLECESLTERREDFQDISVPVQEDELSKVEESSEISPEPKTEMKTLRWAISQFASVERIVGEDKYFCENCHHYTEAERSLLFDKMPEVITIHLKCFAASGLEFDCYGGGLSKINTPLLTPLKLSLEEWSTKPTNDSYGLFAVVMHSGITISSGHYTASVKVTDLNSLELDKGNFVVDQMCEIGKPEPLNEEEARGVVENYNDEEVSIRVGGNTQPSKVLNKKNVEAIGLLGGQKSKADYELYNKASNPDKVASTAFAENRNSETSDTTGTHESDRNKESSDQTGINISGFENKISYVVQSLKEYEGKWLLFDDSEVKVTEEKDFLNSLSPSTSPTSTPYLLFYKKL
Sequence of USP1 (Q8TAF3 whole entry partner): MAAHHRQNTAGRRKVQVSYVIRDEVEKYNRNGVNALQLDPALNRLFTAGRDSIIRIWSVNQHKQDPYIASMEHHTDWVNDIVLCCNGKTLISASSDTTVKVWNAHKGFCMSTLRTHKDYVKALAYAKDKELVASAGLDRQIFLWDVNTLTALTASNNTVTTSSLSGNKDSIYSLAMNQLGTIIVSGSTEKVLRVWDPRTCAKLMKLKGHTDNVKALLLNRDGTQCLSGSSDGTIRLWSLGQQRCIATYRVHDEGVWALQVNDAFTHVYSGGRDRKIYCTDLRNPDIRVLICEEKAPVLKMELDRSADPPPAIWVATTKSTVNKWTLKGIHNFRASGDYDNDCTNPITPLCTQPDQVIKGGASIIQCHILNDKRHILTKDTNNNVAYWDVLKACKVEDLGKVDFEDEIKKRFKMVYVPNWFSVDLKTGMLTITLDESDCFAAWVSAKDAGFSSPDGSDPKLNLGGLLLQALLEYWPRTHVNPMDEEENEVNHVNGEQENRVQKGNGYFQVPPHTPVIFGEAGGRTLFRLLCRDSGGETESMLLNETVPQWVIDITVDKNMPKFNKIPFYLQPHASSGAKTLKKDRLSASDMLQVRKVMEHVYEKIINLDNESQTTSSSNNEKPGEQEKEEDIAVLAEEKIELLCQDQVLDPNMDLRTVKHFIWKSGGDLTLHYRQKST

`CC(C)c1ncccc1-c1nc(C2CC2)n2c1CN(c1ccc(-c3nc(C(F)(F)F)cn3C)cc1)CC2` [Compound 24, 3-(3-cyclopropyl-7-{4-[1-methyl-4-(trifluoromethyl)-1H-imidazol-2-yl]phenyl}-5H,6H,7H,8H-imidazo[1,5-a]pyrazin-1-yl)-2-(propan-2-yl)pyridine] and `Cc1nc(-c2cccnc2C(C)C)c2n1CCN(c1ccc(-c3nc(C(F)(F)F)cn3C3COC3)cc1)C2` [Compound 25, 3-(3-methyl-7-{4-[1-(oxetan-3-yl)-4-(trifluoromethyl)-1H-imidazol-2-yl]phenyl}-5H,6H,7H,8H-imidazo[1,5-a]pyrazin-1-yl)-2-(propan-2-yl)pyridine] cannot be ordered by IC50: at most 1 µM for the first, at most 1 µM for the second.

First: CNC(=O)c1ccc(N2CCn3c(C)nc(-c4cccnc4C(C)C)c3C2)cc1 [Compound 26, N-methyl-4-{3-methyl-1-[2-(propan-2-yl)pyridin-3-yl]-5H,6H,7H,8H-imidazo[1,5-a]pyrazin-7-yl}benzamide]
Second: Cc1nc(-c2cccnc2C(C)C)c2n1CCN(c1ccc(C(=O)N(C)C)cc1)C2 [Compound 50, N,N-dimethyl-4-{3-methyl-1-[2-(propan-2-yl)pyridin-3-yl]-5H,6H,7H,8H-imidazo[1,5-a]pyrazin-7-yl}benzamide]
The IC50 of the first is higher: over 25 µM for the first, 10 to 25 µM for the second.

First: Cc1nc(-c2cccnc2C(C)C)c2n1CCN(c1ccc(-c3cncn3C)cc1)C2 [Compound 28, 3-{3-methyl-7-[4-(1-methyl-1H-imidazol-5-yl)phenyl]-5H,6H,7H,8H-imidazo[1,5-a]pyrazin-1-yl}-2-(propan-2-yl)pyridine]
Second: Cc1nc(-c2ccc(N3CCn4c(C)nc(-c5cccnc5C(C)C)c4C3)cc2)cn1C [Compound 45, 3-{7-[4-(1,2-dimethyl-1H-imidazol-4-yl)phenyl]-3-methyl-5H,6H,7H,8H-imidazo[1,5-a]pyrazin-1-yl}-2-(propan-2-yl)pyridine]
The IC50 of the first is higher: over 25 µM for the first, at most 1 µM for the second.

`Cc1nc(-c2cccnc2C(C)C)c2n1CCN(c1ccc(C3CCCNC3=O)cc1)C2` (stereo not shown) [Compound 29, 3-(4-{3-methyl-1-[2-(propan-2-yl)pyridin-3-yl]-5H,6H,7H,8H-imidazo[1,5-a]pyrazin-7-yl}phenyl)piperidin-2-one] and `Cc1nc(-c2cccnc2C(C)C)c2n1CCN(c1ccc(C3CNC(=O)C3)cc1)C2` (stereo not shown) [Compound 34, 4-(4-{3-methyl-1-[2-(propan-2-yl)pyridin-3-yl]-5H,6H,7H,8H-imidazo[1,5-a]pyrazin-7-yl}phenyl)pyrrolidin-2-one] cannot be ordered by IC50: over 25 µM for the first, over 25 µM for the second.

Compared with `Cc1nc(-c2cccnc2C(C)C)c2n1CCN(c1ccc(N3CCOCC3)cc1)C2` [Compound 30, 4-(4-{3-methyl-1-[2-(propan-2-yl)pyridin-3-yl]-5H,6H,7H,8H-imidazo[1,5-a]pyrazin-7-yl}phenyl)morpholine], `Cc1nc(-c2cccnc2C(C)C)c2n1CCN(c1ccc(N3CCC(O)C3)cc1)C2` (stereo not shown) [Compound 36, 1-(4-{3-methyl-1-[2-(propan-2-yl)pyridin-3-yl]-5H,6H,7H,8H-imidazo[1,5-a]pyrazin-7-yl}phenyl)pyrrolidin-3-ol] is lower in IC50: over 25 µM for the first, 10 to 25 µM for the second. The second is the more potent here.

Compared with `Cc1ccn(-c2ccc(N3CCn4c(C)nc(-c5cccnc5C(C)C)c4C3)cc2)n1` [Compound 31, 3-{3-methyl-7-[4-(3-methyl-1H-pyrazol-1-yl)phenyl]-5H,6H,7H,8H-imidazo[1,5-a]pyrazin-1-yl}-2-(propan-2-yl)pyridine], `Cc1nc(-c2cccnc2C(C)C)c2n1CCN(c1ccc(-n3ccnn3)cc1)C2` [Compound 33, 3-{3-methyl-7-[4-(1H-1,2,3-triazol-1-yl)phenyl]-5H,6H,7H,8H-imidazo[1,5-a]pyrazin-1-yl}-2-(propan-2-yl)pyridine] is higher in IC50: at most 1 µM for the first, 10 to 25 µM for the second. The first is the more potent here.

`Cc1nc(-c2cccnc2C(C)C)c2n1CCN(c1ccc(C3=CCON3)cc1)C2` [Compound 32, 3-{7-[4-(2,5-dihydro-1,2-oxazol-3-yl)phenyl]-3-methyl-5H,6H,7H,8H-imidazo[1,5-a]pyrazin-1-yl}-2-(propan-2-yl)pyridine] and `Cc1nc(-c2cccnc2C(C)C)c2n1CCN(c1ccc(-c3nnn(C)n3)cc1)C2` [Compound 40, 3-{3-methyl-7-[4-(2-methyl-2H-1,2,3,4-tetrazol-5-yl)phenyl]-5H,6H,7H,8H-imidazo[1,5-a]pyrazin-1-yl}-2-(propan-2-yl)pyridine] fall in the same range of IC50: 1 to 10 µM for the first, 1 to 10 µM for the second.

First: Cc1cc(N2CCn3c(C)nc(-c4cccnc4C(C)C)c3C2)ccc1N1CCCC1=O [Compound 35, 1-(2-methyl-4-{3-methyl-1-[2-(propan-2-yl)pyridin-3-yl]-5H,6H,7H,8H-imidazo[1,5-a]pyrazin-7-yl}phenyl)pyrrolidin-2-one]
Second: Cc1nc(-c2cccnc2C(C)C)c2n1CCN(c1ccc(N3CCCC3=O)cc1)C2 [Compound 43, 1-(4-{3-methyl-1-[2-(propan-2-yl)pyridin-3-yl]-5H,6H,7H,8H-imidazo[1,5-a]pyrazin-7-yl}phenyl)pyrrolidin-2-one]
The IC50 of the first is higher: over 25 µM for the first, 1 to 10 µM for the second. The second is the more potent here.

`Cc1nc(-c2cccnc2C(C)C)c2n1CCN(c1ccc(C3COC(=O)N3)cc1)C2` (stereo not shown) [Compound 37, 4-(4-{3-methyl-1-[2-(propan-2-yl)pyridin-3-yl]-5H,6H,7H,8H-imidazo[1,5-a]pyrazin-7-yl}phenyl)-1,3-oxazolidin-2-one] and `Cc1nc(-c2cccnc2C(C)C)c2n1CCN(c1ccc(C3(O)COC3)cc1)C2` [Compound 46, 3-(4-{3-methyl-1-[2-(propan-2-yl)pyridin-3-yl]-5H,6H,7H,8H-imidazo[1,5-a]pyrazin-7-yl}phenyl)oxetan-3-ol] cannot be ordered by IC50: over 25 µM for the first, over 25 µM for the second.

`Cc1nc(-c2cccnc2C(C)C)c2n1CCN(c1ccc(N3CCCCC3=O)cc1)C2` [Compound 38, 1-(4-{3-methyl-1-[2-(propan-2-yl)pyridin-3-yl]-5H,6H,7H,8H-imidazo[1,5-a]pyrazin-7-yl}phenyl)piperidin-2-one] and `Cc1nnnn1-c1ccc(N2CCn3c(C)nc(-c4cccnc4C(C)C)c3C2)cc1` [Compound 39, 3-{3-methyl-7-[4-(5-methyl-1H-1,2,3,4-tetrazol-1-yl)phenyl]-5H,6H,7H,8H-imidazo[1,5-a]pyrazin-1-yl}-2-(propan-2-yl)pyridine] cannot be ordered by IC50: over 25 µM for the first, over 25 µM for the second.

`Cc1nc(-c2cccnc2C(C)C)c2n1CCN(c1ccc(-c3ncccn3)cc1)C2` [Compound 41, 2-(4-{3-methyl-1-[2-(propan-2-yl)pyridin-3-yl]-5H,6H,7H,8H-imidazo[1,5-a]pyrazin-7-yl}phenyl)pyrimidine] and `Cc1nnc(-c2ccc(N3CCn4c(C)nc(-c5cccnc5C(C)C)c4C3)cc2)o1` [Compound 44, 3-{3-methyl-7-[4-(5-methyl-1,3,4-oxadiazol-2-yl)phenyl]-5H,6H,7H,8H-imidazo[1,5-a]pyrazin-1-yl}-2-(propan-2-yl)pyridine] fall in the same range of IC50: 1 to 10 µM for the first, 1 to 10 µM for the second.

`Cc1nc(-c2cccnc2C(C)C)c2n1CCN(c1ccc(-n3cnnc3)cc1)C2` [Compound 42, 3-{3-methyl-7-[4-(4H-1,2,4-triazol-4-yl)phenyl]-5H,6H,7H,8H-imidazo[1,5-a]pyrazin-1-yl}-2-(propan-2-yl)pyridine] and `Cc1nc(-c2cccnc2C(C)C)c2n1CCN(c1ccc(-n3ccnc3)cc1)C2` [Compound 47, 3-{7-[4-(1H-imidazol-1-yl)phenyl]-3-methyl-5H,6H,7H,8H-imidazo[1,5-a]pyrazin-1-yl}-2-(propan-2-yl)pyridine] cannot be ordered by IC50: over 25 µM for the first, over 25 µM for the second.

First: CNC(=O)c1ccc(N2CCn3c(C)nc(-c4cccnc4C(C)C)c3C2)c(F)c1 [Compound 48, 3-fluoro-N-methyl-4-{3-methyl-1-[2-(propan-2-yl)pyridin-3-yl]-5H,6H,7H,8H-imidazo[1,5-a]pyrazin-7-yl}benzamide]
Second: Cc1nc(-c2cccnc2C(C)C)c2n1CCN(c1ccc(C(=O)N(C)C)cc1F)C2 [Compound 49, 3-fluoro-N,N-dimethyl-4-{3-methyl-1-[2-(propan-2-yl)pyridin-3-yl]-5H,6H,7H,8H-imidazo[1,5-a]pyrazin-7-yl}benzamide]
The IC50 of the first is higher: over 25 µM for the first, 10 to 25 µM for the second. The second is the more potent here.

Compared with `Cc1nc(-c2cccnc2C(C)C)c2n1CCN(c1ccc(C(=O)NCc3ccc(-n4ccc(C(F)(F)F)n4)cc3)cc1)C2` [Compound 53, 4-{3-methyl-1-[2-(propan-2-yl)pyridin-3-yl]-5H,6H,7H,8H-imidazo[1,5-a]pyrazin-7-yl}-N-({4-[3-(trifluoromethyl)-1H-pyrazol-1-yl]phenyl}methyl)benzamide], `Cc1nc(-c2cccnc2C(C)C)c2n1CCN(c1ccc(C(=O)N3CCC[C@H]3C)cc1)C2` [Compound 54-1, 3-(3-methyl-7-{4-[(2R)-2-methylpyrrolidine-1-carbonyl]phenyl}-5H,6H,7H,8H-imidazo[1,5-a]pyrazin-1-yl)-2-(propan-2-yl)pyridine] is higher in IC50: 1 to 10 µM for the first, 10 to 25 µM for the second. The first is the more potent here.
